Structures can show the parent of a compound that is named as a salt. Where two headings read alike, the source gives them in different places.
Assays:
P2Y2 receptor = P2Y2 receptor (Homo sapiens, UniProt P41231); test: inositol phosphate assay, P2Y2 receptor activity
Description: (§1) The pharmaceutical utility of compounds of this invention are indicated by the inositol phosphate assay for P2Y2 and other P2Y receptor activity. […] 116, 1619-27 (1995), relies on the measurement of inositol phosphate formation as a measurement of activity of compounds activating receptors linked via G-proteins to phospholipase C.

P2Y1 receptor [1] = molecular target: T1, P2Y1 receptor (Homo sapiens, UniProt P47900); test: inositol phosphate assay, P2Y1 receptor activity; settings: inositol phosphate formation
Description: as §1

P2Y6 receptor = P2Y6 receptor (Homo sapiens, UniProt Q15077); test: inositol phosphate assay, P2Y6 receptor activity
P2Y6 receptor, sequence (Q15077 whole entry): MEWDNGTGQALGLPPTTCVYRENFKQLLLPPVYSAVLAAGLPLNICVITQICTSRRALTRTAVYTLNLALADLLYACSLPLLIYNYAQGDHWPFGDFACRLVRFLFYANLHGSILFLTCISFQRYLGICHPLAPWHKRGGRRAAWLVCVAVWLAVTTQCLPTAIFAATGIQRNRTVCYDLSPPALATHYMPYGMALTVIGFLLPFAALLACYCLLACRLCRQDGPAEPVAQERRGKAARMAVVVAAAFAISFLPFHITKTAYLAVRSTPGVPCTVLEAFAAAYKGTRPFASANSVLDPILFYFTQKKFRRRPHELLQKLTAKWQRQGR
Description: as §1

P2Y4 receptor = P2Y4 receptor (Homo sapiens, UniProt P51582); test: inositol phosphate assay, P2Y4 receptor activity
P2Y4 receptor, sequence (P51582 whole entry): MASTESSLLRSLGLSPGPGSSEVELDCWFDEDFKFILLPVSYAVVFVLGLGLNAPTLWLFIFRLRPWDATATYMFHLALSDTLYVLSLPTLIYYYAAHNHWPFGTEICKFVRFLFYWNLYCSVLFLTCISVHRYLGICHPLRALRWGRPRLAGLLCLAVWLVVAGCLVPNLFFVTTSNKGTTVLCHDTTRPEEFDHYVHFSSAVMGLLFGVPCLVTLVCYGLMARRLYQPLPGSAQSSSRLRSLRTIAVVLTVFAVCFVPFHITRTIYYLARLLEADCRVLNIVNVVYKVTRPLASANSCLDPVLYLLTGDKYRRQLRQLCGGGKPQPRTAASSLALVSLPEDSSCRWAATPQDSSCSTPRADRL
Description: as §1

P2Y1 receptor [2] = molecular target: T1, P2Y1 receptor; test: cell-based
Description: as §1

[3] = normal volunteers; cited from earlier work
[4] = read-out: EC50 P2Y2, inositol phosphate formation
[5] = read-out: EC50 P2Y6, inositol phosphate formation
[6] = read-out: EC50 P2Y4, inositol phosphate formation

T1 sequence (P47900 whole entry): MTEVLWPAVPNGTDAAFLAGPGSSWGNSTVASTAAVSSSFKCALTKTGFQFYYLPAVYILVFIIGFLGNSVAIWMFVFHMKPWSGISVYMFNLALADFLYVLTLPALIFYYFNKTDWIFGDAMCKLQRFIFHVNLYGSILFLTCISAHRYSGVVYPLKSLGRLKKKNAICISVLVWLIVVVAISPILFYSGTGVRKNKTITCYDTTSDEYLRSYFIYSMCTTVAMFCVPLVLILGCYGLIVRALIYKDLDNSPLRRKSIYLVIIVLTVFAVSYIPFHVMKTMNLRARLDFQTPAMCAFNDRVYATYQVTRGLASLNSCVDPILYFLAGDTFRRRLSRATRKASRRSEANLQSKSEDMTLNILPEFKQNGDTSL
P2Y2 receptor, sequence (P41231 whole entry): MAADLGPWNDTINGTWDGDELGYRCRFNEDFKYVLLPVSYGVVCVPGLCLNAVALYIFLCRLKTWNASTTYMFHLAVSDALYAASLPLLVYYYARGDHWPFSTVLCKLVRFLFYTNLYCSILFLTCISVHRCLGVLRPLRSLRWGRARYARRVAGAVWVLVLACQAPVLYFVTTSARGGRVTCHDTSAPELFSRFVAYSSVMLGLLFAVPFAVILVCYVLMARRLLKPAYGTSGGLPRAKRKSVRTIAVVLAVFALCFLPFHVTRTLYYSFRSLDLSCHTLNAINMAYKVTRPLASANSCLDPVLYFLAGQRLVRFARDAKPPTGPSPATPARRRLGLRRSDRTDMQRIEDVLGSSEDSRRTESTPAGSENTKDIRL

Compound	EC50 (P2Y2 receptor) [nM]	EC50 (P2Y4 receptor) [nM]	EC50 (P2Y6 receptor) [nM]	other results
2′(3′)-Benzoyl-P^1,P^4-di(uridine 5′-)tetraphosphate [Example 15]				EC50 (P2Y2 receptor; [4]): 640 nM; EC50 P2Y1 (P2Y1 receptor [1]): IA (Response < 2-fold basal); EC50 (P2Y6 receptor; [5]): 9710 nM; EC50 (P2Y4 receptor; [6]): 3720 nM
O=c1ccn([C@@H]2O[C@H](COP(=O)(O)OP(=O)(O)CP(=O)(O)OP(=O)(O)OC[C@H]3O[C@@H](n4ccc(=O)[nH]c4=O)[C@H](O)[C@@H]3O)[C@@H](O)[C@H]2O)c(=O)[nH]1 [Example 1, P^1,P^4-Di(uridine 5′-)P^2,P^3-methylenetetraphosphate]	> 100000	11100		EC50 P2Y6 (P2Y6 receptor; inositol phosphate formation): IA (Response < 2-fold basal); Percentage response of same study positive control, P2Y4 (P2Y4 receptor; inositol phosphate formation): 60%
O=c1ccn([C@@H]2O[C@H](COP(=O)(O)OP(=O)(O)C(F)(F)P(=O)(O)OP(=O)(O)OC[C@H]3O[C@@H](n4ccc(=O)[nH]c4=O)[C@H](O)[C@@H]3O)[C@@H](O)[C@H]2O)c(=O)[nH]1 [Example 2, P^1,P^4-Di(uridine 5′-P^2,P^3-difluoromethylenetetraphosphate)]	5710	1000	> 100000	Percentage response of same study positive control, P2Y4 (P2Y4 receptor; inositol phosphate formation): 80%
O=c1ccn([C@@H]2O[C@H](COP(=O)(O)OP(=O)(O)NP(=O)(O)OP(=O)(O)OC[C@H]3O[C@@H](n4ccc(=O)[nH]c4=O)[C@H](O)[C@@H]3O)[C@@H](O)[C@H]2O)c(=O)[nH]1 [Example 3, P^1,P^4-Di(uridine 5′-P^2,P^3-imidotetraphosphate)]	630	1190	2560	EC50 (P2Y1 receptor [2]): 3.67 µM
O=c1[nH]c(=S)ccn1[C@@H]1O[C@H](COP(=O)(O)OP(=O)(O)OP(=O)(O)OP(=O)(O)OC[C@H]2O[C@@H](n3ccc(=S)[nH]c3=O)[C@H](O)[C@@H]2O)[C@@H](O)[C@H]1O [Example 4, P^1,P^4-Di(4-thiouridine 5′-tetraphosphate)]	20		50	Percentage response of same study positive control, P2Y6 (P2Y6 receptor; inositol phosphate formation): 20%
O=c1ccn([C@@H]2O[C@H](COP(=O)(O)OP(=O)(O)OP(=O)(O)OP(=O)(O)OP(=O)(O)OC[C@H]3O[C@@H](n4ccc(=O)[nH]c4=O)[C@H](O)[C@@H]3O)[C@@H](O)[C@H]2O)c(=O)[nH]1 [Example 5, P^1,P^5-Di(uridine 5′-pentaphosphate)]	3800	2870	92600	Percentage response of same study positive control, P2Y2 (P2Y2 receptor; inositol phosphate formation): 80%; EC50 (P2Y1 receptor [2]): 31.2 µM; Percentage response of same study positive control, P2Y1 (P2Y1 receptor [1]): 55%
O=c1n([C@@H]2O[C@H](COP(=O)(O)OP(=O)(O)OP(=O)(O)OP(=O)(O)OC[C@H]3O[C@@H](n4ccc5nccn5c4=O)[C@H](O)[C@@H]3O)[C@@H](O)[C@H]2O)ccc2nccn12 [Example 6, P^1,P^4-Di(3,N^4-ethenocytidine 5′-)tetraphosphate]	460	19800		EC50 (P2Y1 receptor [2]): > 100 µM; EC50 P2Y6 (P2Y6 receptor; inositol phosphate formation): IA (Response < 2-fold basal); Percentage response of same study positive control, P2Y4 (P2Y4 receptor; inositol phosphate formation): 75%
O=c1n([C@@H]2O[C@H](COP(=O)(O)OP(=O)(O)OP(=O)(O)OP(=O)(O)OC[C@H]3O[C@@H](n4ccc5nc(-c6cccc([N+](=O)[O-])c6)cn5c4=O)[C@H](O)[C@@H]3O)[C@@H](O)[C@H]2O)ccc2nc(-c3cccc([N+](=O)[O-])c3)cn12 [Example 6a, P^1,P^4-Di(imidazo[1,2-c]pyrimidin-5(6H)-one-2-(3-nitro)-phenyl-6-β-D-ribofuranoside 5′-)tetraphosphate, tetraammonium salt]	300	60	870	
Cc1cn([C@H]2C[C@H](O)[C@@H](COP(=O)(O)OP(=O)(O)OP(=O)(O)OP(=O)(O)OC[C@H]3O[C@@H](n4ccc(=O)[nH]c4=O)[C@H](O)[C@@H]3O)O2)c(=O)[nH]c1=O [Example 7, P^1-(Thymidine-5′-)P^4-(uridine-5′-)tetraphosphate]	110	200	880	
O=c1ccn([C@@H]2O[C@H](COP(=O)(O)OP(=O)(O)OP(=O)(O)OP(=O)(O)OP(=O)(O)OP(=O)(O)OC[C@H]3O[C@@H](n4ccc(=O)[nH]c4=O)[C@H](O)[C@@H]3O)[C@@H](O)[C@H]2O)c(=O)[nH]1 [Example 14, P^1,P^6-Di(uridine-5′-)hexaphosphate]				EC50 (P2Y2 receptor; [4]): 10700 nM; EC50 (P2Y6 receptor; [5]): 3500 nM; EC50 (P2Y4 receptor; [6]): 14700 nM
O=c1ccn([C@@H]2O[C@H](COP(=O)(O)OP(=O)(O)OP(=O)(O)O)[C@@H](O)[C@H]2O)c(=O)[nH]1 [UTP, uridine 5′-triphosphate]				improvement in lung mucociliary clearance [3]: 2.5 fold; side-effects [3]: without any significant side-effects
P^1,P^4-Di(2′(3′)-benzoyl uridine 5′-)tetraphosphate [Example 16]				EC50 (P2Y2 receptor; [4]): 790 nM; EC50 P2Y1 (P2Y1 receptor [1]): IA (Response < 2-fold basal); EC50 (P2Y6 receptor; [5]): 5330 nM; EC50 (P2Y4 receptor; [6]): 730 nM

Further lines, with some results ahead:

EC50 (P2Y2 receptor) [nM]	EC50 (P2Y4 receptor) [nM]	EC50 (P2Y6 receptor) [nM]	Compound	other results
110	150	800	O=c1ccn([C@@H]2O[C@H](COP(=O)(O)OP(=O)(O)OP(=O)(O)OP(=O)(O)OC[C@H]3O[C@@H](n4cnc5c(=O)[nH]cnc54)[C@H](O)[C@@H]3O)[C@@H](O)[C@H]2O)c(=O)[nH]1 [Example 8, P^1-(Inosine 5′-)P^4-(uridine 5′-)tetraphosphate]	
370	4160	1790	O=c1ccn([C@@H]2O[C@H](COP(=O)(O)OP(=O)(O)OP(=O)(O)OP(=O)(O)OC[C@H]3O[C@@H](n4ccc(=S)[nH]c4=O)[C@H](O)[C@@H]3O)[C@@H](O)[C@H]2O)c(=O)[nH]1 [Example 9, P^1-(4-Thiouridine 5′-)P^4-(uridine 5′-)tetraphosphate]	EC50 (P2Y1 receptor [2]): > 100 µM
190	320	1300	Nc1ccn([C@@H]2O[C@H](COP(=O)(O)OP(=O)(O)OP(=O)(O)OP(=O)(O)OC[C@H]3O[C@@H](n4ccc(=O)[nH]c4=O)[C@H](O)[C@@H]3O)[C@@H](O)[C@@H]2O)c(=O)n1 [Example 10, P^1-(Cytosine β-D-arabinofuranoside 5′-)P^4-(uridine 5′-)tetraphosphate]	Percentage response of same study positive control, P2Y4 (P2Y4 receptor; inositol phosphate formation): 65%
130	380	3390	O=c1ccn([C@@H]2O[C@H](COP(=O)(O)OP(=O)(O)OP(=O)(O)OP(=O)(O)OC[C@H]3O[C@@H](n4cnc5c(=O)[nH]c(=O)[nH]c54)[C@H](O)[C@@H]3O)[C@@H](O)[C@H]2O)c(=O)[nH]1 [Example 11, P^1-(Uridine 5′-)-P^4-(xanthosine 5′-)tetraphosphate]	Percentage response of same study positive control, P2Y4 (P2Y4 receptor; inositol phosphate formation): 75%
100	390	920	O=c1ccn([C@@H]2O[C@H](COP(=O)(O)OP(=O)(O)OP(=O)(O)OP(=O)(O)OC[C@H]3O[C@@H](n4ccc(=O)[nH]c4=O)C[C@@H]3O)[C@@H](O)[C@H]2O)c(=O)[nH]1 [Example 12, P^1-(2′-deoxyuridine 5′-)-P^4-(uridine 5′-)tetraphosphate]	
200	130	540	Cc1cn([C@H]2C[C@H](N=[N+]=[N-])[C@@H](COP(=O)(O)OP(=O)(O)OP(=O)(O)OP(=O)(O)OC[C@H]3O[C@@H](n4ccc(=O)[nH]c4=O)[C@H](O)[C@@H]3O)O2)c(=O)[nH]c1=O [Example 13, P^1-(3′-Azido-3′-deoxythymidine 5′-)-P^4-(uridine 5′-)tetraphosphate]	

— patent US6977246B2, “Certain dinucleotides and their use as modulators of mucociliary clearance and ciliary beat frequency” (Inspire Pharmaceuticals, Inc., priority 1997, dated 2005)
